Experimental data reported in patent US20130296413A1, “N-DESMETHYL-DOXEPIN AND METHODS OF USING THE SAME TO TREAT SLEEP DISORDERS” (Procom One, Inc., priority 2006, published 2013).

Columns and labels:
[1] = system: patient suffering from chronic insomnia; assay: Treatment of a patient with chronic insomnia; type: in vivo, human
Source text: A patient suffers from chronic insomnia. The patient is otherwise healthy with normal affect with no depression, anxiety or substance overuse. The patient is prescribed desmethyldoxepin in a daily dosage of 2 milligrams prior to bedtime.
A patient suffers from chronic insomnia. The patient also suffers from depression. The patient is prescribed desmethyldoxepin in a daily dosage of 1 milligram prior to bedtime.
A patient suffers from chronic insomnia. The patient also suffers from depression. The patient is prescribed desmethyldoxepin in a daily dosage of 2 milligrams prior to bedtime.
A patient suffers from chronic insomnia. The patient is otherwise healthy with normal affect with no depression, anxiety or substance overuse. The patient is prescribed desmethyldoxepin in a daily dosage of 5 milligrams prior to bedtime.
A patient suffers from chronic insomnia. The patient also suffers from depression. The patient is prescribed desmethyldoxepin in a daily dosage of 5 milligrams prior to bedtime.
A patient suffers from chronic insomnia. The patient is otherwise healthy with normal affect with no depression, anxiety or substance overuse. The patient is prescribed desmethyldoxepin in a daily dosage of 10 milligrams prior to bedtime.
A patient suffers from chronic insomnia. The patient also suffers from depression. The patient is prescribed desmethyldoxepin in a daily dosage of 10 milligrams prior to bedtime.
A patient suffers from chronic insomnia. The patient is otherwise healthy with normal affect with no depression, anxiety or substance overuse. The patient is prescribed desmethyldoxepin in a daily dosage of 20 milligrams prior to bedtime.
A patient suffers from chronic insomnia. The patient also suffers from depression. The patient is prescribed desmethyldoxepin in a daily dosage of 20 milligrams prior to bedtime.
A patient suffers from chronic insomnia. The patient is otherwise healthy with normal affect with no depression, anxiety or substance overuse. The patient is prescribed desmethyldoxepin in a daily dosage of 150 milligrams prior to bedtime.
A patient suffers from chronic insomnia. The patient also suffers from depression. The patient is prescribed desmethyldoxepin in a daily dosage of 150 milligrams prior to bedtime.

[2] = system: patient suffering from transient or short term insomnia; assay: Treatment of a patient with transient or short term insomnia; type: in vivo, human
Source text: A patient suffers from transient or short term insomnia. The patient is otherwise healthy with normal affect with no depression, anxiety or substance overuse. The patient is prescribed desmethyldoxepin in a daily dosage of 1 milligram, prior to bedtime.
A patient suffers from transient or short term insomnia. The patient is otherwise healthy with normal affect with no depression, anxiety or substance overuse. The patient is prescribed desmethyldoxepin in a daily dosage of 2 milligrams, prior to bedtime.
A patient suffers from transient or short term insomnia. The patient also suffers from depression. The patient is prescribed desmethyldoxepin in a daily dosage of 2 milligrams, prior to bedtime.
A patient suffers from transient or short term insomnia. The patient is otherwise healthy with normal affect with no depression, anxiety or substance overuse. The patient is prescribed desmethyldoxepin in a daily dosage of 5 milligrams, prior to bedtime.
A patient suffers from transient or short term insomnia. The patient also suffers from depression. The patient is prescribed desmethyldoxepin in a daily dosage of 5 milligrams, prior to bedtime.
A patient suffers from transient or short term insomnia. The patient is otherwise healthy with normal affect with no depression, anxiety or substance overuse. The patient is prescribed desmethyldoxepin in a daily dosage of 10 milligrams, prior to bedtime.
A patient suffers from transient or short term insomnia. The patient also suffers from depression. The patient is prescribed desmethyldoxepin in a daily dosage of 10 milligrams, prior to bedtime.
A patient suffers from transient or short term insomnia. The patient is otherwise healthy with normal affect with no depression, anxiety or substance overuse. The patient is prescribed desmethyldoxepin in a daily dosage of 20 milligrams prior to bedtime.
A patient suffers from transient or short term insomnia. The patient also suffers from depression. The patient is prescribed desmethyldoxepin in a daily dosage of […] prior to bedtime.
A patient suffers from transient or short term insomnia. The patient is otherwise healthy with normal affect with no depression, anxiety or substance overuse. The patient is prescribed desmethyldoxepin in a daily dosage of 150 milligrams prior to bedtime.
A patient suffers from transient or short term insomnia. The patient also suffers from depression. The patient is prescribed desmethyldoxepin in a daily dosage of 150 milligrams prior to bedtime.

[3] = daily dosage of 2 milligrams prior to bedtime, patient also suffers from depression
[4] = daily dosage of 2 milligrams prior to bedtime, patient otherwise healthy, no depression, anxiety or substance overuse
[5] = daily dosage of 5 milligrams prior to bedtime, patient also suffers from depression
[6] = daily dosage of 5 milligrams prior to bedtime, patient otherwise healthy, no depression, anxiety or substance overuse
[7] = daily dosage of 10 milligrams prior to bedtime, patient also suffers from depression
[8] = daily dosage of 10 milligrams prior to bedtime, patient otherwise healthy, no depression, anxiety or substance overuse
[9] = daily dosage of 20 milligrams prior to bedtime, patient otherwise healthy, no depression, anxiety or substance overuse
[10] = daily dosage of 150 milligrams prior to bedtime, patient also suffers from depression
[11] = daily dosage of 150 milligrams prior to bedtime, patient otherwise healthy, no depression, anxiety or substance overuse

Measured: relief of insomnia

CNCC/C=C1/c2ccccc2COc2ccccc21 [desmethyldoxepin, Desmethyldoxepin]
relieves the insomnia: [1]; daily dosage of 1 milligram prior to bedtime, patient also suffers from depression | [1]; [3] | [1]; [4] | [1]; [5] | [1]; [6] | [1]; [7] | [1]; [8] | [1]; daily dosage of 20 milligrams prior to bedtime, patient also suffers from depression | [1]; [9] | [1]; [10] | [1]; [11] | [2]; daily dosage of 1 milligram prior to bedtime, patient otherwise healthy, no depression, anxiety or substance overuse | [2]; [3] | [2]; [4] | [2]; [5] | [2]; [6] | [2]; [7] | [2]; [8] | [2]; [9] | [2]; daily dosage of 20 prior to bedtime, patient also suffers from depression | [2]; [10] | [2]; [11]
